Results from ChEMBL document CHEMBL4308841, “Synthesis, in vitro antiproliferative activity, and kinase inhibitory effects of pyrazole-containing diarylureas and diarylamides” (Eur J Med Chem, 2018).

Experiments:
[1] = tested on: SF-295; assay: Growth inhibition of human SF295 cells incubated for 48 hrs by sulforhodamine B assay; format: functional, cell-based; conditions: SF-295, 48 h
[2] = tested on: SF-539; assay: Growth inhibition of human SF539 cells assessed as cell growth at 0.1 uM incubated for 48 hrs by sulforhodamine B assay relative to control; format: functional; conditions: SF-539, 48 h, read-out: Activity
[3] = tested on: SNB-19; assay: Growth inhibition of human SNB19 cells assessed as cell growth at 100 uM incubated for 48 hrs by sulforhodamine B assay relative to control; format: functional; conditions: SNB-19, 48 h, read-out: Activity
[4] = tested on: OVCAR-5; assay: Growth inhibition of human OVCAR5 cells assessed as cell growth at 0.01 uM incubated for 48 hrs by sulforhodamine B assay relative to control; format: functional; conditions: OVCAR-5, 48 h, read-out: Activity
[5] = tested on: MDA-MB-468; assay: Growth inhibition of human MDA-MB-468 cells incubated for 48 hrs by sulforhodamine B assay; format: functional, cell-based; conditions: MDA-MB-468, 48 h
[6] = tested on: SF-268; assay: Growth inhibition of human SF268 cells assessed as cell growth at 1 uM incubated for 48 hrs by sulforhodamine B assay relative to control; format: functional; conditions: SF-268, 48 h, read-out: Activity
[7] = tested on: LOX IMVI; assay: Growth inhibition of human LOXIMVI cells assessed as cell growth at 1 uM incubated for 48 hrs by sulforhodamine B assay relative to control; format: functional; conditions: read-out: Activity
[8] = tested on: SK-MEL-28; assay: Growth inhibition of human SK-MEL-28 cells incubated for 48 hrs by sulforhodamine B assay; format: functional, cell-based; conditions: SK-MEL-28, 48 h
[9] = tested on: UO-31; assay: Growth inhibition of human UO31 cells assessed as cell growth at 0.01 uM incubated for 48 hrs by sulforhodamine B assay relative to control; format: functional; conditions: UO-31, 48 h, read-out: Activity
[10] = tested on: UACC-62; assay: Growth inhibition of human UACC62 cells assessed as cell growth at 0.1 uM incubated for 48 hrs by sulforhodamine B assay relative to control; format: functional; conditions: UACC-62, 48 h, read-out: Activity
[11] = tested on: HCT-116; assay: Growth inhibition of human HCT116 cells assessed as cell growth at 100 uM incubated for 48 hrs by sulforhodamine B assay relative to control; format: functional; conditions: HCT-116, 48 h, read-out: Activity
[12] = tested on: T47D; assay: Growth inhibition of human T47D cells assessed as cell growth at 0.1 uM incubated for 48 hrs by sulforhodamine B assay relative to control; format: functional; conditions: read-out: Activity
[13] = tested on: K562; assay: Growth inhibition of human K562 cells assessed as cell growth at 1 uM incubated for 48 hrs by sulforhodamine B assay relative to control; format: functional; conditions: K562, 48 h, read-out: Activity
[14] = tested on: LOX IMVI; assay: Growth inhibition of human LOXIMVI cells assessed as cell growth at 0.1 uM incubated for 48 hrs by sulforhodamine B assay relative to control; format: functional; conditions: read-out: Activity
[15] = tested on: ACHN; assay: Growth inhibition of human ACHN cells assessed as cell growth at 100 uM incubated for 48 hrs by sulforhodamine B assay relative to control; format: functional; conditions: read-out: Activity
[16] = tested on: SW-620; assay: Growth inhibition of human SW620 cells assessed as cell growth at 1 uM incubated for 48 hrs by sulforhodamine B assay relative to control; format: functional; conditions: SW-620, 48 h, read-out: Activity
[17] = tested on: Hs-578T; assay: Growth inhibition of human Hs578T cells assessed as cell growth at 100 uM incubated for 48 hrs by sulforhodamine B assay relative to control; format: functional; conditions: read-out: Activity
[18] = tested on: MDA-MB-435; assay: Growth inhibition of human MDA-MB-435 cells incubated for 48 hrs by sulforhodamine B assay; format: functional, cell-based; conditions: MDA-MB-435, 48 h
[19] = tested on: A549; assay: Growth inhibition of human A549/ATCC cells incubated for 48 hrs by sulforhodamine B assay; format: functional, cell-based; conditions: A549, 48 h
[20] = tested on: RPMI-8226; assay: Growth inhibition of human RPMI8226 cells incubated for 48 hrs by sulforhodamine B assay; format: functional, cell-based; conditions: RPMI-8226, 48 h
[21] = tested on: BT-549; assay: Growth inhibition of human BT549 cells assessed as cell growth at 0.1 uM incubated for 48 hrs by sulforhodamine B assay relative to control; format: functional; conditions: BT-549, 48 h, read-out: Activity
[22] = tested on: A498; assay: Growth inhibition of human A498 cells assessed as cell growth at 0.01 uM incubated for 48 hrs by sulforhodamine B assay relative to control; format: functional; conditions: A498, 48 h, read-out: Activity
[23] = tested on: RPMI-8226; assay: Growth inhibition of human RPMI8226 cells assessed as cell growth at 0.01 uM incubated for 48 hrs by sulforhodamine B assay relative to control; format: functional; conditions: RPMI-8226, 48 h, read-out: Activity
[24] = tested on: MDA-MB-231; assay: Growth inhibition of human MDA-MB-231 cells incubated for 48 hrs by sulforhodamine B assay; format: functional, cell-based; conditions: MDA-MB-231, 48 h
[25] = tested on: SF-539; assay: Growth inhibition of human SF539 cells incubated for 48 hrs by sulforhodamine B assay; format: functional, cell-based; conditions: SF-539, 48 h
[26] = tested on: RPMI-8226; assay: Growth inhibition of human RPMI8226 cells assessed as cell growth at 0.1 uM incubated for 48 hrs by sulforhodamine B assay relative to control; format: functional; conditions: RPMI-8226, 48 h, read-out: Activity
[27] = tested on: SF-268; assay: Growth inhibition of human SF268 cells assessed as cell growth at 100 uM incubated for 48 hrs by sulforhodamine B assay relative to control; format: functional; conditions: SF-268, 48 h, read-out: Activity
[28] = tested on: K562; assay: Growth inhibition of human K562 cells assessed as cell growth at 0.01 uM incubated for 48 hrs by sulforhodamine B assay relative to control; format: functional; conditions: K562, 48 h, read-out: Activity
[29] = read-out: LC50 (the source's name)
[30] = read-out: pLC50 (the source's name) (converted)

Compound: O=C(Nc1cccc(-n2cc(-c3ccncc3)c(-c3cc(O)cc(Cl)c3)n2)c1)Nc1ccc(Cl)c(C(F)(F)F)c1
- GI50 ([1]; read-out: GI50): 2.06 µM
- CC50 [1, 29]: 17 µM
- TGI ([1]; read-out: TGI): 49.6 µM
- GI50 ([1]; read-out: pGI50 (converted)): 2.57 µM
- CC50 [1, 30]: 17.8 µM
- TGI ([1]; read-out: pTGI (converted)): 4.9 µM
- growth at 0.1 µM [2]: 95%
- growth at 100 µM [3]: -33%
- growth at 0.01 µM [4]: 98%
- IC50 [5]: 2.08 µM
- GI50 ([5]; read-out: GI50): 2.05 µM
- CC50 [5, 29]: > 100 µM
- TGI ([5]; read-out: TGI): 84.2 µM
- GI50 ([5]; read-out: pGI50 (converted)): 2.63 µM
- CC50 [5, 30]: > 100 µM
- TGI ([5]; read-out: pTGI (converted)): 8.51 µM
- growth at 1 µM [6]: 92%
- growth at 1 µM [7]: 93%
- GI50 ([8]; read-out: GI50): 2.01 µM
- CC50 [8, 29]: 25.5 µM
- TGI ([8]; read-out: TGI): 62 µM
- GI50 ([8]; read-out: pGI50 (converted)): 2 µM
- CC50 [8, 30]: 26.3 µM
- TGI ([8]; read-out: pTGI (converted)): 6.17 µM
- growth at 0.01 µM [9]: 93%
- growth at 0.1 µM [10]: 102%
- growth at 100 µM [11]: -57%
- growth at 0.1 µM [12]: 90%
- growth at 1 µM [13]: 55%
- growth at 0.1 µM [14]: 95%
- growth at 100 µM [15]: -25%
- growth at 1 µM [16]: 101%
- growth at 100 µM [17]: 1%
- GI50 ([18]; read-out: GI50): 1.73 µM
- LC50 ([18]; read-out: LC50): 55.2 µM
- TGI ([18]; read-out: TGI): 30 µM
- GI50 ([18]; read-out: pGI50 (converted)): 1.78 µM
- LC50 ([18]; read-out: pLC50 (converted)): 8.51 µM
- TGI ([18]; read-out: pTGI (converted)): 3.89 µM
- IC50 [19]: 2.33 µM
- GI50 ([19]; read-out: GI50): 2.33 µM
- CC50 [19, 29]: > 100 µM
- TGI ([19]; read-out: TGI): 92 µM
- GI50 ([19]; read-out: pGI50 (converted)): 2.34 µM
- CC50 [19, 30]: > 100 µM
- TGI ([19]; read-out: pTGI (converted)): 9.12 µM
- IC50 [20]: 1.95 µM
- GI50 ([20]; read-out: GI50): 1.96 µM
- CC50 [20, 29]: > 100 µM
- TGI ([20]; read-out: TGI): 50 µM
- GI50 ([20]; read-out: pGI50 (converted)): 1.95 µM
- CC50 [20, 30]: > 100 µM
- TGI ([20]; read-out: pTGI (converted)): 5.13 µM
- growth at 0.1 µM [21]: 95%
- growth at 0.01 µM [22]: 58%
- growth at 0.01 µM [23]: 101%
- GI50 ([24]; read-out: GI50): 1.55 µM
- CC50 [24, 29]: > 100 µM
- TGI ([24]; read-out: TGI): 50.6 µM
- GI50 ([24]; read-out: pGI50 (converted)): 1.86 µM
- CC50 [24, 30]: > 100 µM
- TGI ([24]; read-out: pTGI (converted)): 5.89 µM
- GI50 ([25]; read-out: GI50): 1.97 µM
- CC50 [25, 29]: 13.7 µM
- TGI ([25]; read-out: TGI): 44.9 µM
- GI50 ([25]; read-out: pGI50 (converted)): 1.95 µM
- CC50 [25, 30]: 13.8 µM
- TGI ([25]; read-out: pTGI (converted)): 4.47 µM
- growth at 0.1 µM [26]: 101%
- growth at 100 µM [27]: -27%
- growth at 0.01 µM [28]: 101%
